Where two headings read alike, the source gives them in different places.
What was measured:
Assay in all cases: KiNativ assay
Format in all cases: binding
Settings in all cases: H929 live cell
PI4KB = PI4KB (Homo sapiens (Human), UniProt Q9UBF8)
Protocol: (§1) Biochemical IC50s of the compounds of the present disclosure against various kinases were measured in a KiNativ assay. Compounds were screened in duplicate at 10 μM in H929 live cell. IC50 was measured via Mass spectroscopy (MS).

ABL, ARG = test system: ABL, ARG
Protocol: as §1

MARK3 = MARK3 (Homo sapiens (Human), UniProt P27448)
Protocol: as §1

[1] = test system: RSK1 domain1, RSK2 domain1, RSK3 domain1
Protocol: as §1

GSK3A = GSK3A (Homo sapiens (Human), UniProt P49840)
Protocol: as §1

ATR = ATR (Homo sapiens (Human), UniProt Q13535)
Protocol: as §1

ILK = ILK (Homo sapiens (Human), UniProt Q13418)
Protocol: as §1

NDR1 = NDR1 (Homo sapiens (Human), UniProt Q15208)
Protocol: as §1

[2] = test system: CaMK2a, CaMK2b, CaMK2d, CaMK2g
Protocol: as §1

NEK8 = NEK8 (Homo sapiens (Human), UniProt Q86SG6)
Protocol: as §1

CaMK1d = CaMK1d (Homo sapiens (Human), UniProt Q8IU85)
Protocol: as §1

CK1a = CK1a (Homo sapiens (Human), UniProt P48729)
Protocol: as §1

CLK2 = CLK2 (Homo sapiens (Human), UniProt P49760)
Protocol: as §1

PIK3CG = PIK3CG (Homo sapiens (Human), UniProt P48736)
Protocol: as §1

Erk2 = Erk2 (Homo sapiens (Human), UniProt P28482)
Protocol: as §1

CaMK2g = CaMK2g (Homo sapiens (Human), UniProt Q13555)
Protocol: as §1

SRPK1 = SRPK1 (Homo sapiens (Human), UniProt Q96SB4)
Protocol: as §1

RSK2 domain2 = RSK2 domain2 (Homo sapiens (Human), UniProt P51812)
Protocol: as §1

STLK3 = STLK3 (Homo sapiens (Human), UniProt Q9UEW8)
Protocol: as §1

MAST3 = MAST3 (Homo sapiens (Human), UniProt O60307)
Protocol: as §1

Erk1 = Erk1 (Homo sapiens (Human), UniProt P27361)
Protocol: as §1

TAO1, TAO3 = test system: TAO1, TAO3
Protocol: as §1

CDK5 = CDK5 (Homo sapiens (Human), UniProt Q00535)
Protocol: as §1

MARK2 = MARK2 (Homo sapiens (Human), UniProt Q7KZI7)
Protocol: as §1

IKKb = IKKb (Homo sapiens (Human), UniProt O14920)
Protocol: as §1

SLK = SLK (Homo sapiens (Human), UniProt Q9H2G2)
Protocol: as §1

MAP2K6 = MAP2K6 (Homo sapiens (Human), UniProt P52564)
Protocol: as §1

MLK3 = MLK3 (Homo sapiens (Human), UniProt Q16584)
Protocol: as §1

PIK3C3 = PIK3C3 (Homo sapiens (Human), UniProt Q8NEB9)
Protocol: as §1

p38d, p38g = test system: p38d, p38g
Protocol: as §1

NEK1 = NEK1 (Homo sapiens (Human), UniProt Q96PY6)
Protocol: as §1

IRAK4 = IRAK4 (Homo sapiens (Human), UniProt Q9NWZ3)
Protocol: as §1

CSK = CSK (Homo sapiens (Human), UniProt P41240)
Protocol: as §1

GSK3A, sequence (P49840 whole entry): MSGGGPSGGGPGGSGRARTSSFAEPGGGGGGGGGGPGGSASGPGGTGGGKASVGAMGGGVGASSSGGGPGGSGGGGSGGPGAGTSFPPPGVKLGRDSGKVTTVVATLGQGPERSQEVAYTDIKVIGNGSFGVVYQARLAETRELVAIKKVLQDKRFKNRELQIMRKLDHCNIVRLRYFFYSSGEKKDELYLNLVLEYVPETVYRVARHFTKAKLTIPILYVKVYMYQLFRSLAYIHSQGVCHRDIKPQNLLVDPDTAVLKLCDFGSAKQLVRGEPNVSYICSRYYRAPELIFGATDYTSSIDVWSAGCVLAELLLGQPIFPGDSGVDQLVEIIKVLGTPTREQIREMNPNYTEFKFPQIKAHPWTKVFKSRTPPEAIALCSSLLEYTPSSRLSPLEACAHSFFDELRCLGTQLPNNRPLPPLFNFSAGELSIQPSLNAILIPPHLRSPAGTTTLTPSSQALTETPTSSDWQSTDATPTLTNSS
IKKb, sequence (O14920 whole entry): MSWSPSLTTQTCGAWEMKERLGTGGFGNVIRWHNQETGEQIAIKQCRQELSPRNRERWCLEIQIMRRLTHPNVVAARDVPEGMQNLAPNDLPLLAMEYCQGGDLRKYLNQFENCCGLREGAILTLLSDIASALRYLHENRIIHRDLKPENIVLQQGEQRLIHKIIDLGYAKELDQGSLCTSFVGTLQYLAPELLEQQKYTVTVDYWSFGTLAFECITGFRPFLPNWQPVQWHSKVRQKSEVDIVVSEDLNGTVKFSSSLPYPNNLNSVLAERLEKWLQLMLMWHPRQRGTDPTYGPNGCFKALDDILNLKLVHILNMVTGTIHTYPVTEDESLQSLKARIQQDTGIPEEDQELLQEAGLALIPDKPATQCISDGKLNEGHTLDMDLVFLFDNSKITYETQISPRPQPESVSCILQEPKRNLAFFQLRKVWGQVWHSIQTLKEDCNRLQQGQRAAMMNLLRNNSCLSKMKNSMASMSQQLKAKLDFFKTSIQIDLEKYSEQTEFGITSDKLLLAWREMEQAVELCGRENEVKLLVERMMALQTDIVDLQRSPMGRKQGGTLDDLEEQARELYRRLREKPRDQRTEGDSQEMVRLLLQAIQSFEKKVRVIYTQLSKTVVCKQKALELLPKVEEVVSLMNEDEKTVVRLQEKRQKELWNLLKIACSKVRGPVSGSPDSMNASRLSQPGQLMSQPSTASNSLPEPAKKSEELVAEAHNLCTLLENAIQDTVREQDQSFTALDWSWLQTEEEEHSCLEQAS
NEK1, sequence (Q96PY6 whole entry): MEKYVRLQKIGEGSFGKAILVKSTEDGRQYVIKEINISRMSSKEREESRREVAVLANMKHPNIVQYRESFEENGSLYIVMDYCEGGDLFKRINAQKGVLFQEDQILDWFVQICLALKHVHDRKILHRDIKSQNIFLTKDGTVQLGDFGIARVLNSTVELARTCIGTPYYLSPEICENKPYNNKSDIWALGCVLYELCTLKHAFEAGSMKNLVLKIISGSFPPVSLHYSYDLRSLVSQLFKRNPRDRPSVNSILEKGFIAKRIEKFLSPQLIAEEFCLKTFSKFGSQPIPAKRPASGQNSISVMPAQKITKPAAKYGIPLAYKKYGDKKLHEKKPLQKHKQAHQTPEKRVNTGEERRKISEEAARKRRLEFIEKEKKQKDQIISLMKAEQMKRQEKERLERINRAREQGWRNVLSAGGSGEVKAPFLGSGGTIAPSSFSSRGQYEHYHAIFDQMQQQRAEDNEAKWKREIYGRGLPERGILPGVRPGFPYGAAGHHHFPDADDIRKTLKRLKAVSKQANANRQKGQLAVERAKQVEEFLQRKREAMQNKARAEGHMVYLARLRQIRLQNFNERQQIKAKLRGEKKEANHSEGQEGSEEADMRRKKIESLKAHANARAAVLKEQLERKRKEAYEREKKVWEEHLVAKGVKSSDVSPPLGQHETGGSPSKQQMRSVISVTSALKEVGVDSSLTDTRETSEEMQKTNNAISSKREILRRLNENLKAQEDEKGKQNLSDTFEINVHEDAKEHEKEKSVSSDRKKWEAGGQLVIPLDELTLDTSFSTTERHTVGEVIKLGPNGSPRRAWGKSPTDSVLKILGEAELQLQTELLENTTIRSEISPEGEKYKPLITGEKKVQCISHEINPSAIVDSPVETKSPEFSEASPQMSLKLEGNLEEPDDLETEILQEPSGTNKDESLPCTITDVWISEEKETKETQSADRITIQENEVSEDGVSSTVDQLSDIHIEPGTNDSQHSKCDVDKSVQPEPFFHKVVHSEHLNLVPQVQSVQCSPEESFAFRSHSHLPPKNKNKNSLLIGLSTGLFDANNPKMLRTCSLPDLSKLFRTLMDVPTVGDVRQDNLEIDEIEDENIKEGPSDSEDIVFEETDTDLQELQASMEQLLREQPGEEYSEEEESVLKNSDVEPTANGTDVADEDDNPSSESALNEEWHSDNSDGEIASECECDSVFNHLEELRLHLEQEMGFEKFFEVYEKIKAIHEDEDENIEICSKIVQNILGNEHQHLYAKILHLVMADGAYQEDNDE
NDR1, sequence (Q15208 whole entry): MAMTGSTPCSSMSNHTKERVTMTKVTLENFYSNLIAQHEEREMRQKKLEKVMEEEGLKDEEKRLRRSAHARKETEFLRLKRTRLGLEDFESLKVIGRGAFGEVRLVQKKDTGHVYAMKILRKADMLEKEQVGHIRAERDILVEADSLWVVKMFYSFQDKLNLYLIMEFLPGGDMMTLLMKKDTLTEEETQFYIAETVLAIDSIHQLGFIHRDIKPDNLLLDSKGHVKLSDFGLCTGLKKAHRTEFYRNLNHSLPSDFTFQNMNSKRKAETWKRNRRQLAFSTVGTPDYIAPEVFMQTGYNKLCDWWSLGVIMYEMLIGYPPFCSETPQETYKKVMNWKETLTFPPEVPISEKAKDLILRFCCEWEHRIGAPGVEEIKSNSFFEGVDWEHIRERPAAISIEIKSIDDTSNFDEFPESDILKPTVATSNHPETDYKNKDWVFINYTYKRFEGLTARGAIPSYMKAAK
MAST3, sequence (O60307 whole entry): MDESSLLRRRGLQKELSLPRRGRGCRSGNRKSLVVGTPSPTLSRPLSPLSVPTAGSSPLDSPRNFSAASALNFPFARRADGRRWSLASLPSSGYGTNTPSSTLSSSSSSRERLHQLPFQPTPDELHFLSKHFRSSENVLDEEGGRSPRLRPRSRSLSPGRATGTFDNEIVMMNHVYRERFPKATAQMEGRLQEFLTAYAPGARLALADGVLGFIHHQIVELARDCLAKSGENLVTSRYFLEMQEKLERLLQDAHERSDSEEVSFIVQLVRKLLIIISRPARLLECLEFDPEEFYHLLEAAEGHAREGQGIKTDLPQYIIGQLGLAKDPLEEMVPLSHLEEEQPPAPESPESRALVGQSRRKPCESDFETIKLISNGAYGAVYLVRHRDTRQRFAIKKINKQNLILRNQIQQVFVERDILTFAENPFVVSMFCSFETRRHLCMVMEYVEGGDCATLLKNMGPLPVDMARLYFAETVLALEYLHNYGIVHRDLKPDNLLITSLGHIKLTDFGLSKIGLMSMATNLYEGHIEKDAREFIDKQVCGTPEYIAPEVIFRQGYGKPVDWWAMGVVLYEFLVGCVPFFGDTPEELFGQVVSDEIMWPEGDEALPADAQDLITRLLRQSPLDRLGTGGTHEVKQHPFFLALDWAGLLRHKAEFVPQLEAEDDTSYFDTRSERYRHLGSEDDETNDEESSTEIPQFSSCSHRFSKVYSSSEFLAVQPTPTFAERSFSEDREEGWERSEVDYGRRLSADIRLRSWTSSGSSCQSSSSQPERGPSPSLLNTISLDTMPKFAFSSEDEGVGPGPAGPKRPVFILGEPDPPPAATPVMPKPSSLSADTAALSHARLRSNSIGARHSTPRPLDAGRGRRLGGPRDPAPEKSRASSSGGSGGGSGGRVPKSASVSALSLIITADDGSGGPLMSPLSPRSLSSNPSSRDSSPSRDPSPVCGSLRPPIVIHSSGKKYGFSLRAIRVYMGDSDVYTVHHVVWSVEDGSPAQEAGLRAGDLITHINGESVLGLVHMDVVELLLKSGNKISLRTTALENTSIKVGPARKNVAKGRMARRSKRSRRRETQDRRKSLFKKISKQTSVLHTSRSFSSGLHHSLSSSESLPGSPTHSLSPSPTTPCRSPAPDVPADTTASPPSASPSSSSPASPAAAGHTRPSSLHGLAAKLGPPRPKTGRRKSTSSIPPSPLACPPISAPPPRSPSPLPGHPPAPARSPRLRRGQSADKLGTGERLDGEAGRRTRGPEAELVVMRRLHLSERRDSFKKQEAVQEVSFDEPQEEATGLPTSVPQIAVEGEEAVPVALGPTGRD
MARK3, sequence (P27448 whole entry): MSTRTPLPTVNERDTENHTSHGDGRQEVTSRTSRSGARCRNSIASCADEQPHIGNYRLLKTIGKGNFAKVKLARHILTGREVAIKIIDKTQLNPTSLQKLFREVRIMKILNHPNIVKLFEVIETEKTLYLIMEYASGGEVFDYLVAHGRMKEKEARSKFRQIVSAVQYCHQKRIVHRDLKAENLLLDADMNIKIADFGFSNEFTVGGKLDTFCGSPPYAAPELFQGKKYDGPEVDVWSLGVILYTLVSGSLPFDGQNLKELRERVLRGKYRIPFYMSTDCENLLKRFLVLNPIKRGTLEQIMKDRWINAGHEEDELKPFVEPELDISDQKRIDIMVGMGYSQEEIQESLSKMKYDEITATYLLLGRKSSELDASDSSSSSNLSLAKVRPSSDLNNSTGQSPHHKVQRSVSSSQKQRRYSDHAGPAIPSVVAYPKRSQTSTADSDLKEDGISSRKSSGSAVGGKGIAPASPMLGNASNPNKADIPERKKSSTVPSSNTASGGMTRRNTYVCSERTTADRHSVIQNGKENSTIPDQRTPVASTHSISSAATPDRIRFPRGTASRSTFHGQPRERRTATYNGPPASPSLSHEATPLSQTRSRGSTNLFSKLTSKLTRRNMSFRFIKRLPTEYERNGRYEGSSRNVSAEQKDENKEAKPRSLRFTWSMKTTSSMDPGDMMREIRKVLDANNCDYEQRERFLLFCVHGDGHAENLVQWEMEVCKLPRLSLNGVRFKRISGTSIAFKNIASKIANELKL

CN(C1CC1)S(=O)(=O)c1ccc(-c2cnc(N)c(-c3ccc4c(c3)CCNC4=O)c2)c(F)c1 [Compound I-28, 4-(6-amino-5-(1-oxo-1,2,3,4-tetrahydroisoquinolin-6-yl)pyridin-3-yl)-N-cyclopropyl-3-fluoro-N-methylbenzenesulfonamide]
inhibition at 10 µM (PI4KB; read-out: % inhibition (range)): 0% | inhibition at 10 µM (PI4KB; read-out: inhibition (10 μM)): 16.7% | % inhibition (range) (ABL, ARG; 10 μM): 0.0% | inhibition (10 μM) (ABL, ARG): 13.3% | inhibition at 10 µM (MARK3; read-out: % inhibition (range)): 0% | inhibition at 10 µM (MARK3; read-out: inhibition (10 μM)): 14.5% | % inhibition (range) ([1]; 10 μM): 0.0% | inhibition (10 μM) [1]: 13.3% | inhibition at 10 µM (GSK3A; read-out: % inhibition (range)): > 90% | inhibition at 10 µM (GSK3A; read-out: inhibition (10 μM)): 93.5% | inhibition at 10 µM (ATR; read-out: % inhibition (range)): 0% | inhibition at 10 µM (ATR; read-out: inhibition (10 μM)): -37.5% | inhibition at 10 µM (ILK; read-out: % inhibition (range)): 0% | inhibition at 10 µM (ILK; read-out: inhibition (10 μM)): -5.8% | inhibition at 10 µM (NDR1; read-out: % inhibition (range)): 0% | inhibition at 10 µM (NDR1; read-out: inhibition (10 μM)): 24.6% | % inhibition (range) ([2]; 10 μM): 0.0% | inhibition (10 μM) [2]: 1.4% | inhibition at 10 µM (NEK8; read-out: % inhibition (range)): 0% | inhibition at 10 µM (NEK8; read-out: inhibition (10 μM)): -3.4% | inhibition at 10 µM (CaMK1d; read-out: % inhibition (range)): 0% | inhibition at 10 µM (CaMK1d; read-out: inhibition (10 μM)): 15.2% | inhibition at 10 µM (CK1a; read-out: % inhibition (range)): 35 to 50% | inhibition at 10 µM (CK1a; read-out: inhibition (10 μM)): 37.8% | inhibition at 10 µM (CLK2; read-out: % inhibition (range)): 35 to 50% | inhibition at 10 µM (CLK2; read-out:): 42.7% | inhibition at 10 µM (PIK3CG; read-out: % inhibition (range)): 0% | inhibition at 10 µM (PIK3CG; read-out: inhibition (10 μM)): 1.7% | inhibition at 10 µM (Erk2; read-out: % inhibition (range)): 0% | inhibition at 10 µM (Erk2; read-out: inhibition (10 μM)): 13.9% | inhibition at 10 µM (CaMK2g; read-out: % inhibition (range)): 0% | inhibition at 10 µM (CaMK2g; read-out: inhibition (10 μM)): -13% | inhibition at 10 µM (SRPK1; read-out: % inhibition (range)): 0% | inhibition at 10 µM (SRPK1; read-out: inhibition (10 μM)): 19.5% | inhibition at 10 µM (RSK2 domain2; read-out: % inhibition (range)): 0% | inhibition at 10 µM (RSK2 domain2; read-out: inhibition (10 μM)): -20% | inhibition at 10 µM (STLK3; read-out: % inhibition (range)): 0% | inhibition at 10 µM (STLK3; read-out: inhibition (10 μM)): 13.5% | inhibition at 10 µM (MAST3; read-out: % inhibition (range)): 0% | inhibition at 10 µM (MAST3; read-out: inhibition (10 μM)): 14.2% | inhibition at 10 µM (Erk1; read-out: % inhibition (range)): 0% | inhibition at 10 µM (Erk1; read-out: inhibition (10 μM)): 11% | % inhibition (range) (TAO1, TAO3; 10 μM): 75-90% | inhibition (10 μM) (TAO1, TAO3): 85.5% | inhibition at 10 µM (CDK5; read-out: % inhibition (range)): 0% | inhibition at 10 µM (CDK5; read-out: inhibition (10 μM)): 17% | inhibition at 10 µM (MARK2; read-out: % inhibition (range)): 0% | inhibition at 10 µM (MARK2; read-out: inhibition (10 μM)): 4.6% | inhibition at 10 µM (IKKb; read-out: % inhibition (range)): 0% | inhibition at 10 µM (IKKb; read-out: inhibition (10 μM)): 6.8% | inhibition at 10 µM (SLK; read-out: % inhibition (range)): 50 to 75% | inhibition at 10 µM (SLK; read-out: inhibition (10 μM)): 58.9% | inhibition at 10 µM (MAP2K6; read-out: % inhibition (range)): 0% | inhibition at 10 µM (MAP2K6; read-out: inhibition (10 μM)): 27.6% | inhibition at 10 µM (MLK3; read-out: % inhibition (range)): 0% | inhibition at 10 µM (MLK3; read-out: inhibition (10 μM)): 11.7% | inhibition at 10 µM (PIK3C3; read-out: % inhibition (range)): > 100% | inhibition at 10 µM (PIK3C3; read-out: inhibition (10 μM)): -107% | % inhibition (range) (p38d, p38g; 10 μM): 0.0% | inhibition (10 μM) (p38d, p38g): 7.7% | inhibition at 10 µM (NEK1; read-out: % inhibition (range)): 0% | inhibition at 10 µM (NEK1; read-out: inhibition (10 μM)): -14.1% | inhibition at 10 µM (IRAK4; read-out: % inhibition (range)): 0% | inhibition at 10 µM (IRAK4; read-out: inhibition (10 μM)): -0.7% | inhibition at 10 µM (CSK; read-out: % inhibition (range)): 0% | inhibition at 10 µM (CSK; read-out: inhibition (10 μM)): 3.7%
